# Reference: patent publication US20060128577A1, “Use of alkoxylated hydroxycarboxylic acid esters for solubilizing perfume oils in water” (priority 2004, published 2006)
# Assay: Solubilizing effect of surfactants for perfume oil in water (10% by weight aqueous surfactant solution, perfume oil quantity before clouding)
# Type: physicochemical
# Conditions: 10% by weight aqueous solution of surfactant, higher = better solubilizing effect
# Protocol: 1. In order to test the effect according to the invention, a 10% by weight aqueous solution of various surfactants was prepared. To this end, the surfactant was first mixed with the perfume oil and water was then added. The higher the percentage content of perfume oil, the better the solubilizing effect of the surfactant. In Table 1 below, V stands for known products and E for alkoxylated esters according to the invention.
# Examples E1 and E2 according to the invention use a citric acid ester as described in 1.1 or 1.2.
substance,measurement,setting,value
2-Hydroxy-C12-(PO)1-(EO)9-glycol ether [Example V1a],Quantity (% by wt.) before clouding,perfume oil: Lemon oil terpene,4 % by wt.
same,Quantity (% by wt.) before clouding,perfume oil: Octyl aldehyde,2 % by wt.
same,Quantity (% by wt.) before clouding,perfume oil: Orange oil,4 % by wt.
